One data set has as its system HIV-1 (strain LAV). Kind of data set: Anti-HIV-1 activity in human PBM cells infected with HIV-1 (strain LAV), reverse transcriptase readout. It is filed as cell-based. The settings on record: Human immunodeficiency virus 1, PBMC, read-out: Median effective concentration (EC50) against HIV-1. Here is the method:
The median effective concentrations (EC50) of selected quinolines against HIV-1 were determined in human blood mononuclear (PBM) cells infected with HIV-1 (strain LAV) as described below. […] It appears that the presence of a heteraromatic substituent at position 2 of the quinoline enhances the anti-HIV-1 activity of the 4-[(alkyl and dialkyl)amino]quinoline derivative. The anti-HIV-1 activity appears to be diminished in compounds with large substituents attached to the 4-amino group.
The following procedure was used to determine the EC50 values for selected compounds.
A. Three-day-old phytohemagglutinin-stimulated PBM cells (10^6 cells/ml) from hepatitis B and HIV-1 seronegative healthy donors were infected with HIV-1 (strain LAV) at a concentration of about 100 times the 50% tissue culture infectious dose (TICD 50) per ml and cultured in the presence and absence of various concentrations of quinolines.
B. Approximately 45 minutes after infection, medium, with the compound to be tested (2 times the final concentration in medium) or without compound, was added to the flasks (5 ml; final volume 10 ml). AZT was used as a positive control.
C. The cells were exposed to HIV (about 2×10^5 dpm/ml, as determined by reverse transcriptase assay) and then placed in a CO2 incubator. HIV-1 (strain LAV) was obtained from the Center for Disease Control, Atlanta, Ga. The methods used for culturing the PBM cells, harvesting the virus and determining the reverse transcriptase activity were those described by McDougal et al. (J. Immun. Meth. 76, 171-183, 1985) and Spira et al. (J. Clin. Meth. 25, 97-99, 1987), except that fungizone was not included in the medium (see Schinazi, et al., Antimicrob. Agents Chemother. 32, 1784-1787 (1988)). The reverse transcriptase activity in the virus-infected control was about 2×10^5 dpm per ml. Blank and uninfected cell control values were about 300 and 1,000 dpm, respectively.
D. On day 6, the cells and media were transferred to a 15 ml tube and centrifuged at about 900 g for 10 minutes. Five ml of supernatant were removed and the virus concentrated by centrifugation at 40,000 rpm for 30 minutes (Beckman 70.1 Ti rotor). The solubilized virus pellet was processed for determination of the levels of reverse transcriptase. Results are expressed in dpm/ml of sampled supernatant.
The median effective (EC50) concentrations for derivatized quinolines, were determined by the median effect method (Antimicrob. Agents Chemother. 30: 491-498, 1986). Briefly, in the median effect method, the percent inhibition of virus, as determined from measurements of reverse transcriptase, is plotted versus the micromolar concentration of compound. The EC50 is the concentration of compound at which there is a 50% inhibition of viral replication.

The nature of data set [1]: Toxicity (growth) in uninfected human peripheral blood mononuclear (PBM) cells. It is filed as cell-based. The settings on record: 6 days, trypan blue exclusion, read-out: IC50, growth of uninfected PBM cells. On the procedure:
The toxicity of 6a,6d,8a, and 8c were determined in […] PBM cells (3.8×10^5 cells/ml) cultured in the presence and absence of compounds under conditions similar to those used for the antiviral assay described above but without virus. The cells were counted after 6 days using a hemacytometer and the trypan blue exclusion method, as described by Schinazi et al., Antimicrobial Agents and Chemotherapy, 22(3), 499 (1982).
The effect of the compounds on the growth of uninfected human PBM cells in culture is used as an indicator of the toxicity of the test compound to the normal viability of cells. The IC50 is the concentration of compound which inhibits 50% of normal, uninfected, cell growth.

Data set [2] has as its system Plasmid pBR322 superhelical DNA. Conditions: reference value; cited from earlier work.
Data set [3] relates to antimalarial and antiamoebic activity. The settings on record: Hahn et al.; cited from earlier work.
The test system of the next data set is DNA. The settings on record: Hahn et al. 1966; cited from earlier work.
For data set [4] the following is noted: infants and children, high dosages; cited from earlier work.

Entries after “also recorded” stand apart in the source; their conditions may differ. A value given as a limit tells only on which side of the number the result lay.

`CCN(CCN(C)C)c1cc(-c2cccnc2)nc2ccccc12` [Quinoline 6b]: the EC50 in the data set with HIV-1 (strain LAV) worked out at 24.2 µM.

In the case of `CN(C)CCNc1cc(-c2ccco2)nc2ccccc12` [Quinoline 8a], the CC50 at 144 h in data set [1] is greater than 100 µM. Moreover, the EC50 with HIV-1 (strain LAV) turned out to be 0.9 µM.

As to `CN1CCN(c2cc(-c3ccccn3)nc3ccccc23)CC1` [Quinoline 5d], the EC50 in the data set on HIV-1 (strain LAV) was found to be 5.5 µM.

For `CN(C)CCNc1cc(-c2ccccn2)nc2ccccc12` [Quinoline 5a], in the data set on HIV-1 (strain LAV), the EC50 was found to be 1.1 µM.

As to `CN(C)CCNc1cc(-c2cccs2)nc2ccccc12` [Quinoline 9a], the EC50 in the data set on HIV-1 (strain LAV) turned out to be 1 µM.

Take `CC[n+]1c(-c2ccccc2)c2cc(N)ccc2c2ccc(N)cc21` [ethidium]: the Unwinding angle in data set [2] is on record as 26.

Consider `CN1CCN(c2cc(-c3cccnc3)nc3ccccc23)CC1` [Quinoline 6d], for which the CC50 at 144 h in data set [1] is greater than 100 µM. Moreover, the EC50 with HIV-1 (strain LAV) stood at 1 µM.

For the molecule `CCN(CCN(C)C)c1cc(-c2ccccn2)nc2ccccc12` [Quinoline 5b], the EC50 in the data set with HIV-1 (strain LAV) was 13.2 µM.

As to `CN1CCN(c2cc(-c3ccco3)nc3ccccc23)CC1` [Quinoline 8c], the CC50 at 144 h in data set [1] was greater than 100 µM. For the same molecule, the EC50 in the data set on HIV-1 (strain LAV) was determined as 1 µM.

On to `CN1CCN(c2cc(-c3ccncc3)nc3ccccc23)CC1` [Quinoline 7c], for which the EC50 with HIV-1 (strain LAV) came to 68.2 µM.

For `CN(C)CCNc1cc(-c2cccnc2)nc2ccccc12` [Quinoline 6a], the CC50 at 144 h in data set [1] was greater than 100 µM. In addition, in the data set on HIV-1 (strain LAV), the EC50 came to 1.5 µM.

As for `CCN(CCN(C)C)c1cc(-c2cccs2)nc2ccccc12` [Quinoline 9c], in the data set with HIV-1 (strain LAV), the EC50 was 32.4 µM.

As to `CCN(CC)CCCC(C)Nc1c2ccc(Cl)cc2nc2ccc(OC)cc12` (centres unmarked) [quinacrine, 6-chloro-9-[[4-(diethylamino)-1-methylbutyl]amino]-2-methoxyacridine], the “Antimalarial and antiamoebic activity (in words)” value in data set [3] is “have antimalarial and antiamoebic activity”.

In the case of `CCN(CC)CCCC(C)Nc1ccnc2cc(Cl)ccc12` (centres unmarked) [chloroquine, 7-chloro-4-(4-diethylamino-1-methylbutylamino)quinoline], the “Inhibition of nucleic acid biosynthesis (in words)” value with DNA is reported as “inhibits nucleic acid biosynthesis by forming a molecular complex with DNA”. Further, the “Antimalarial and antiamoebic activity (in words)” value in data set [3] was “have antimalarial and antiamoebic activity”. In data set [4], the “Adverse effects (in words)” value was “Sudden deaths have been reported; also recorded: infants and children are extremely susceptible to adverse effects”.
